Read-outs that look alike come from different tables or passages of the source.
Legend:
Type in all cases: cell-based
Human AR [1] = target: T1, Human AR (Homo sapiens (Human), UniProt P10275); experiment: AR agonist assay (GRE-LUC luciferase, transfected HEK-293 cells, test article alone); settings: HEK-293 transfected with human AR, read-out: AR Agonist IC50
Experimental: (§1) Human AR cDNA cloned into pCMV vector, GRE-LUC, and CMV-renilla-LUC were used to transfect cells. HEK-293 cells (ATCC) were plated at 120,000 cells per well of a 24 well plate in DME+5% csFBS (Fisher Scientific, Waltham, Mass.). The cells were transfected using Lipofectamine (Life Technologies, Carlsbad, Calif.) with 0.25 μg GRE-LUC, 0.010 μg CMV-LUC (renilla luciferase) and 25 ng of the AR. […] Luciferase assay was performed 48 hrs after transfection. Firefly luciferase assay values were normalized to renilla luciferase values and were graphed using graphpad prism software (La Jolla, Calif.). […] The IC50 or EC50 values were determined using non-linear regression and […] logistics fitting.

Human AR [2] = target: T1, Human AR; experiment: AR antagonist assay (GRE-LUC luciferase, transfected HEK-293 cells, with 0.1 nM R1881); settings: with 0.1 nM R1881
Experimental: as §1

GR = GR (Homo sapiens (Human), UniProt P04150); experiment: GR antagonist assay (GRE-LUC luciferase, transfected COS-7 cells, with 0.1 nM dexamethasone); settings: in the presence of 0.1 nM dexamethasone; for GR antagonist assay, % of vehicle: 10 μM
GR, sequence (P04150 whole entry): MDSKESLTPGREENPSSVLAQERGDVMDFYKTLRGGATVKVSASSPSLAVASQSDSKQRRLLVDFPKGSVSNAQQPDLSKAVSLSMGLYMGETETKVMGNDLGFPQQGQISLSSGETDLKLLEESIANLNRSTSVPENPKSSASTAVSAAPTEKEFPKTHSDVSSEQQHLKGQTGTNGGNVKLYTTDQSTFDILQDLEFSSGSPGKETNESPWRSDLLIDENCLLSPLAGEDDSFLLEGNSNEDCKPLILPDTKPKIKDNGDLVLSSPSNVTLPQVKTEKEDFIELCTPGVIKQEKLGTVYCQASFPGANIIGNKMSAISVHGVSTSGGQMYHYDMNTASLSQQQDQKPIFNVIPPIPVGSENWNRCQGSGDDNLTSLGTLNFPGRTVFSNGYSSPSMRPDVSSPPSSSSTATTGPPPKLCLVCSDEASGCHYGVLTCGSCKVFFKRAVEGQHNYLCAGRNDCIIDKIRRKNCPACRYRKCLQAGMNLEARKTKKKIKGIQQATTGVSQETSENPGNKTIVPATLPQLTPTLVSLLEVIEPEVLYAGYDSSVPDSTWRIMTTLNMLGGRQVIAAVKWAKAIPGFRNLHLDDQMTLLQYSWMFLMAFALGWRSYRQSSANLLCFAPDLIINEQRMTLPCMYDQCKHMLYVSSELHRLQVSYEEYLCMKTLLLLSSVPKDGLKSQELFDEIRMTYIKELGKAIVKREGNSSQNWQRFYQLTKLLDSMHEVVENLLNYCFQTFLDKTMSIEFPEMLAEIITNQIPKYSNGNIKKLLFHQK
Experimental: COS-7 cells (ATCC, Manassas, Va.) were plated in 24 well plates in DME+5% csFBS without phenol red at 70,000 cells/well. Once the cells attached to the plates (typically after overnight incubation after plating), they were transfected in OPTIMEM medium (Life Technologies) using lipofectamine reagent (Life Technologies) with 0.25 μg GRE-LUC, 25 ng pCR3.1 GR, and 10 ng CMV-renilla LUC per well. Twenty-four hours after transfection, the cells were fed with DME+5% csFBS without phenol red (Fisher Scientific, Waltham, Mass.) and treated with the test compounds (1 pM to 10 μM dose range) in the presence of 0.1 nM dexamethasone (Sigma, St. Louis, Mo.). Sixteen to twenty-four hours after treatment, a luciferase assay was performed using the Dual Luciferase assay kit (Promega, Madison, Wis.). Firefly luciferase values were normalized to Renilla luciferase numbers.

LNCaP-abl cells = experiment: Cell proliferation assay, LNCaP-abl (CellTiter-Glo); settings: 72 h, 3 days; for activity at 3 µM: read-out: cell proliferation, % of vehicle at 3 μM; for activity at 10 µM: read-out: cell proliferation, % of vehicle at 10 μM
Experimental: (§2) LNCaP-abl (3,000 cells/well, received from Dr. Myles Brown, Dana Farber Cancer Institute), 22RV1 (1,000 cells/well), LNCaP (5,000 cells/well), or COS (3,000 cells/well) cells were plated in 96 well plates in 50 μl RPMI+10% FBS (Fisher Scientific, Waltham, Mass.). LNCaP, COS, and 22RV1 cells were obtained from ATCC. Cells were treated in RPMI+10% FBS with test articles, ranging from 1 nM to 10 μM. Three days later, viable cells (LNCaP-abl, 22RV1, and COS) were measured by CellTiter-Glo assay (Promega, Madison, Wis.). For LNCaP cells, medium containing test article was changed after 3 days of treatment, and after an additional 3 days of culture, viable cells were measured by CellTiter-Glo assay.
(§3) The LNCaP cell line is androgen responsive with AR and PSA expression. It contains a T877A mutation in the AR. The 22RV1 cell line is positive for AR and PSA with additional AR splice variants and is insensitive to androgen for cell proliferation. The LNCaP-abl cell line expresses both AR and GR but is insensitive to androgen for cell proliferation. COS-7 is used as an AR negative cell line in this experiment.

[3] = test system: TMPRSS2 expression in LNCaP cells; experiment: AR activity assay: TMPRSS2 gene expression in LNCaP cells (realtime PCR); settings: 1 and 10 μM, in the presence of 0.1 nM R1881
Experimental: (§4) LNCaP (ATCC) or LNCaP-EnzR (MR49F was received from Dr. Martin Gleave, University of British Columbia) cells were plated in 96 well plates at 15,000-20,000 cells/well in RPMI+1% csFBS without phenol red. Cells were treated 2 days after plating and harvested 18 hours after treatment (for TMPRSS2) or 24 hours after treatment (for PSA and FKBP5). RNA was isolated (cells to ct kit, Life Technologies), cDNA synthesized (cells to ct kit), and expression of TMPRSS2, PSA or FKBP5 and expression of GAPDH were measured using realtime PCR primers and probes (TaqMan probes, Life Technologies) by realtime PCR (ABI 7900, Life Technologies). Relative expression was calculated using ddct method.

[4] = test system: TMPRSS2 expression in LNCaP-EnzR cells; experiment: AR activity assay: TMPRSS2 gene expression in LNCaP-EnzR (MR49F) cells (realtime PCR); settings: enzalutamide resistant LNCaP-EnzR cells, 1 and 10 μM
Experimental: as §4

GFP-AR = GFP-AR (Homo sapiens (Human), UniProt P10275)
GFP-AR, sequence (P10275 whole entry, looked up): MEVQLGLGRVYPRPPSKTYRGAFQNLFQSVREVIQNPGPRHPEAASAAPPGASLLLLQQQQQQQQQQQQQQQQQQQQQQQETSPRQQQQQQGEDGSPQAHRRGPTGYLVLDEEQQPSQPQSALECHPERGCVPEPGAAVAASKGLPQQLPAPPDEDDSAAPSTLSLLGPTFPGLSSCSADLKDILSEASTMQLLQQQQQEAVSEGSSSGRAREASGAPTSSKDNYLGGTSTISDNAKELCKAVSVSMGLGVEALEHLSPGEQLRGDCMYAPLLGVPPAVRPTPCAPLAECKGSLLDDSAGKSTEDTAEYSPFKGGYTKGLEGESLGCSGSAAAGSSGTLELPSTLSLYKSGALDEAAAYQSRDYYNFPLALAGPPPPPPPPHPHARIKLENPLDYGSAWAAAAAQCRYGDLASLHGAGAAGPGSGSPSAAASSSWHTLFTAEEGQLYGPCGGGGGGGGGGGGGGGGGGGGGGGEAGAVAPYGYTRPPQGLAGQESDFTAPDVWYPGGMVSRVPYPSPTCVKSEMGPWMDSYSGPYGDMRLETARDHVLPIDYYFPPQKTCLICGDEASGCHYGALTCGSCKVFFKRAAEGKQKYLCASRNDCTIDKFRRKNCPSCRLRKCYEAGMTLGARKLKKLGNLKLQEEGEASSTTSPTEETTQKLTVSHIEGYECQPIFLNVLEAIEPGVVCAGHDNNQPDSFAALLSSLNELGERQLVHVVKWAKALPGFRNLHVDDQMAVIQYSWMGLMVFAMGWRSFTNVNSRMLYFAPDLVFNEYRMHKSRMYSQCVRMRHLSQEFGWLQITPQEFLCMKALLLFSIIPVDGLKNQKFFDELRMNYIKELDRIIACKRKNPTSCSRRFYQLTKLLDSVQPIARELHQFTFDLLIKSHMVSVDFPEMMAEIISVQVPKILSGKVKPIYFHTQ
Experimental: COS cells plated in chamber slides in DME+5% csFBS without phenol red were transfected with […] GFP-AR using lipofectamine reagent.

LNCaP cells = experiment: Cell proliferation assay, LNCaP (CellTiter-Glo); settings: 6 days
Experimental: as §2, §3

22RV1 cells = experiment: Cell proliferation assay, 22RV1 (CellTiter-Glo); settings: 3 days; for cell proliferation, % of vehicle at 3 μM: 22RV1, 3 μM; for cell proliferation, % of vehicle at 10 μM: 22RV1, 10 μM
Experimental: as §2, §3

COS-7 cells = experiment: Cell proliferation assay, COS-7 (CellTiter-Glo); settings: 3 days; for cell proliferation, % of vehicle at 3 μM: COS-7, 3 μM; for cell proliferation, % of vehicle at 10 μM: COS-7, 10 μM
Experimental: as §2, §3

MR49F cells = experiment: Cell proliferation assay, MR49F enzalutamide-resistant LNCaP cells (SRB); settings: six days
Experimental: The outer wells of the 96 well plates were not used for treatment due to potential evaporation. Cells were treated with selected doses of the compounds with the final concentration of DMSO kept at 0.1%. The cells were re-treated three days later. At the end of six days of treatment, the cells were fixed using 40% w/v trichloroacetic acid and a […] (SRB) assay was performed to determine the cell viability.

PSA gene expression = experiment: AR activity assay: PSA gene expression (realtime PCR); settings: 1 and 10 μM
Experimental: as §4

FKBP5 gene expression = experiment: AR activity assay: FKBP5 gene expression (realtime PCR); settings: 1 and 10 μM
Experimental: as §4

[5] = COS cells, GFP-AR, 30 min pre-treatment, then R1881 for four hours

T1 sequence (P10275 whole entry): as the sequence (P10275 whole entry, looked up) above

Row | Compound | EC50 (Human AR [1]) [nM] | IC50 (Human AR [2]) [nM] | IC50 (GR) [nM] | activity at 3 µM (LNCaP-abl cells) [%] | activity at 10 µM (LNCaP-abl cells) [%] | also measured
1 | CC1(C)C(=O)N(c2ccc(C#N)c(C(F)(F)F)c2)C(=S)N1c1ccc(CNC(=O)c2ncccn2)cc1 [Compound 19] | > 10000 | 453 | > 10000 |  |  | 
2 | CC1(C)C(=O)N(c2ccc(C#N)c(C(F)(F)F)c2)C(=S)N1c1ccc(CNC(=O)c2cncs2)cc1 [Compound 18] | > 10000 | 358 | > 10000 |  |  | 
3 | CC(C)(C)C(=O)NCc1ccc(N2C(=S)N(c3ccc(C#N)c(C(F)(F)F)c3)C(=O)C2(C)C)cc1F [Compound 6] | > 10000 | 778 | > 10000 | 79 | 101 | 
4 | CNC(=O)c1ccc(N2C(=S)N(c3ccc(C#N)c(C(F)(F)F)c3)C(=O)C2(C)C)cc1F [Enzalutamide, enzalutamide] |  |  |  |  |  | TMPRSS2 expression [3]: inhibitory effects; TMPRSS2 expression [4]: failed to reduce TMPRSS2 expression
5 | Cn1ccnc1C(=O)NCc1ccc(N2C(=S)N(c3ccc(C#N)c(C(F)(F)F)c3)C(=O)C2(C)C)cc1F [Compound 4] | > 10000 | 386 |  |  |  | 
6 | CC1(C)C(=O)N(c2ccc(C#N)c(C(F)(F)F)c2)C(=S)N1c1ccc(CNC(=O)c2cnco2)c(F)c1 [Compound 60] |  | 115 | > 10000 | 75 | 96 | 
7 | CC1(C)C(=O)N(c2ccc(C#N)c(C(F)(F)F)c2)C(=S)N1c1ccc(CNC(=O)c2cncs2)c(Cl)c1 [Compound 25] |  | 99 | > 10000 | 96 | 64 | 
8 | C[C@]1(O)CC[C@H]2[C@@H]3CCC4=CC(=O)CCC4=C3C=C[C@@]21C [Compound R1881, reference compound] |  |  |  |  |  | AR localization (cytoplasmic or nuclear) (GFP-AR): nuclear
9 | Cc1ncsc1C(=O)NCc1ccc(N2C(=S)N(c3ccc(C#N)c(F)c3)C(=O)C2(C)C)cc1F [Compound 68] |  | 120 |  | 89 | 85 | GR antagonist assay, % of vehicle (GR): 84%
10 | Cc1ncsc1C(=O)NCc1ccc(N2C(=S)N(c3ccc(C#N)c(C(F)(F)F)c3)C(=O)C2(C)C)cc1F [Compound 9] | > 10000 | 49.1 |  | 89 | 27 | AR localization (cytoplasmic or nuclear) (GFP-AR; [5]): nuclear; GR antagonist assay, % of vehicle (GR): 41%; cell proliferation, % of vehicle at 3 μM (LNCaP cells): 55%; cell proliferation, % of vehicle at 10 μM (LNCaP cells): 21%; cell proliferation, % of vehicle at 3 μM (22RV1 cells): 77%; cell proliferation, % of vehicle at 10 μM (22RV1 cells): 41%; cell proliferation, % of vehicle at 3 μM (COS-7 cells): 92%; cell proliferation, % of vehicle at 10 μM (COS-7 cells): 99%; cell proliferation, % of vehicle at 3 μM (MR49F cells; 3 μM): 53%; cell proliferation, % of vehicle at 10 μM (MR49F cells; 10 μM): 29%
11 | CC1(C)C(=O)N(c2ccc(C#N)c(C(F)(F)F)c2)C(=O)N1c1ccc(CNC(=O)c2cccnc2)c(F)c1 [Compound 29] |  | 910 | > 10000 | 90 | 92 | 
12 | Cn1nccc1C(=O)NCc1ccc(N2C(=S)N(c3ccc(C#N)c(C(F)(F)F)c3)C(=O)C23CCC3)cc1F [Compound 73] |  | 92 | 2960 | 79 | 66 | 
13 | Cn1ccnc1C(=O)NCc1ccc(N2C(=O)N(c3ccc(C#N)c(C(F)(F)F)c3)C(=O)C2(C)C)cc1F [Compound 1] | > 10000 | 968 |  |  |  | 
14 | Cc1ccccc1C(=O)NCc1ccc(N2C(=S)N(c3ccc(C#N)c(F)c3)C(=O)C2(C)C)cc1F [Compound 71] |  | 589 | > 10000 | 86 | 81 | 
15 | CC1(C)C(=O)N(c2ccc(C#N)c(C(F)(F)F)c2)C(=S)N1c1ccc(CNC(=O)c2nccs2)c(F)c1 [Compound 2] |  | 31 | > 10000 | 78 | 71 | 
16 | Cc1ncsc1C(=O)NCc1ccc(N2C(=S)N(c3cccc(C(F)(F)F)c3)C(=O)C2(C)C)cc1F [Compound 76, N-(4-(5,5-dimethyl-4-oxo-2-thioxo-3-(3-(trifluoromethyl)phenyl)-imidazolidin-1-yl)-2-fluorobenzyl)-4-methylthiazole-5-carboxamide] |  | > 10000 | 3310 | 72 | 88 | 
17 | CC1(C)C(=O)N(c2ccc(C#N)c(C(F)(F)F)c2)C(=S)N1c1ccc(CNC(=O)c2ccccn2)c(F)c1 [Compound 8] | > 10000 | 47.2 |  | 83 | 62 | PSA gene expression (PSA gene expression): significant inhibition; FKBP5 gene expression (FKBP5 gene expression): significant inhibition; AR localization (cytoplasmic or nuclear) (GFP-AR; [5]): nuclear; GR antagonist assay, % of vehicle (GR): 52%; cell proliferation, % of vehicle at 3 μM (LNCaP cells): 63%; cell proliferation, % of vehicle at 10 μM (LNCaP cells): 19%; cell proliferation, % of vehicle at 3 μM (22RV1 cells): 87%; cell proliferation, % of vehicle at 10 μM (22RV1 cells): 90%; cell proliferation, % of vehicle at 3 μM (COS-7 cells): 99%; cell proliferation, % of vehicle at 10 μM (COS-7 cells): 91%
18 | Cc1ncsc1C(=O)NCc1ccc(N2C(=S)N(c3ccc(C#N)c(C(F)(F)F)c3)C(=O)C2(C)C)cc1 [Compound 39] |  | 200 | > 10000 | 90 | 87 | 
19 | CC1(C)C(=O)N(c2ccc(C#N)c(C(F)(F)F)c2)C(=S)N1c1ccc(CNC(=O)c2cccnc2)c(F)c1 [Compound 12] | > 10000 | 108 | > 10000 | 95 | 61 | 
20 | Cn1cncc1C(=O)NCc1ccc(N2C(=S)N(c3ccc(C#N)c(C(F)(F)F)c3)C(=O)C2(C)C)cc1F [Compound 44] |  | 120 | > 10000 | 87 | 71 | 
21 | Cc1ncsc1C(=O)NCc1ccc(N2C(=S)N(c3cnc(C#N)c(C(F)(F)F)c3)C(=O)C2(C)C)cc1Cl [Compound 38] |  | 240 | > 10000 | 59 | 56 | 

From US11292782B2, “Diarylhydantoin compounds and methods of use thereof” (Nuvation Bio Inc., priority 2018, dated 2022)
